The record followed here is patent US20260159528A1, “HETEROCYCLIC COMPOUNDS AS TRIGGERING RECEPTOR EXPRESSED ON MYELOID CELLS 2 AGONISTS AND METHODS OF USE” (Vigil Neuroscience, Inc., priority 2021, published 2026).

Molecules are shown by their SMILES.

T1 sequence (Q9NZC2 19-230): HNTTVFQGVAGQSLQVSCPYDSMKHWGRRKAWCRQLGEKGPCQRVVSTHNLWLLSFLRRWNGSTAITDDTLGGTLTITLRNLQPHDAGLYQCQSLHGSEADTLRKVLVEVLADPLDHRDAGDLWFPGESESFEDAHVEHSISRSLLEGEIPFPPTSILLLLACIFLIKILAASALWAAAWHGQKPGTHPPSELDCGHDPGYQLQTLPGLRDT
T1 sequence (O43914 22-113 partner): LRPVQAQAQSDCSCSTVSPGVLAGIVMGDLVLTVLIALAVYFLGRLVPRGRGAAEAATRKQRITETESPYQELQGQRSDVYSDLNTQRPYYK

The assay concerns the target T1, human TREM2 (Homo sapiens, UniProt Q9NZC2).
T1 construct: expressed in transfected cells; host or cells: HEK293T
The assay is described as follows: TREM2 agonist potency by cellular Syk phosphorylation (AlphaLisa) in HEK293T-hTREM2 cells. Particulars: Table D-2; HEK293 cells expressing human TREM2 and DAP12; pSyk AlphaLisa. Type of assay: cell-based. How it is done: In vitro Measurement of Triggering Receptor Expressed on Myeloid Cells 2 activity using cellular phosphorylation of Spleen Tyrosine Kinase (“Syk”) Assays
Measurement of TREM2 agonist potency was done using a HEK cell line expressing human TREM2 and DAP12 (HEK293T-hTREM2 cells). Binding of small molecules to, and activation of, TREM2 increases the phosphorylation of Syk. The resultant levels of Syk phosphorylation are measured using a commercial AlphaLisa reagent kit. To perform the assay, HEK-hTREM2 cells were plated at 14,000 cells per well in a 384 well plate, in 25 µL of complete growth media and incubated at 37° C., 5% CO2 for 20-24 hours.
Prior to the assay, test compounds were diluted in the 384 well plates in assay buffer and allowed to equilibrate for 30 minutes. Growth media was removed from cell plates by inversion on blotting paper, and 25 μL of test articles in assay buffer was added to cells. Cells were incubated for 45 minutes at room temperature. After 45 minutes, assay buffer was removed and 10 μL of lysis buffer was added. Plates were shaken for 20 minutes at 350 RPM at room temperature. After complete lysis, AlphaLisa reagents were added to the lysate, and fluorescence intensity was measured using a Perkin Elmer Envision plate reader. Intensities were used to generate a standard curve, and % activation was calculated. Curve fitting was performed using Prism v9 software, log(agonist) vs response—variable slope (four parameters), and EC50s were calculated from the curve fit.
The results presented in Table D have been generated with the in vitro assay described above. This assay may be used to test any of the compounds described herein to assess and characterize a compound's ability to act as an agonist of TREM2.
(Alpha assays give light when donor and acceptor beads are brought close together.)
Take `CN(C)c1nc2nc([C@@H]3CCO[C@@H](c4cnn(C5CC5)c4)C3)nc(-c3ccc(C(F)(F)F)cc3F)c2s1` (single isomer, unassigned) [Compound I-135]: the EC50 fell in the range of 500 to 3000 nM. Compound `CN(C)c1nc2nc(N3CCC(F)(F)C(c4cnn(C5CC5)c4)C3)nc(-c3ccc(F)cc3F)c2s1` (centres unmarked) [Compound I-245, 5-(3-(1-cyclopropyl-1H-pyrazol-4-yl)-4,4-difluoropiperidin-1-yl)-7-(2,4-difluorophenyl)-N,N-dimethylthiazolo[4,5-d]pyrimidin-2-amine] displayed an EC50 of no more than 50 nM. Next, `CO[C@H]1CCN(c2nc3nc([C@H]4CCO[C@@H](c5cnn(C6CC6)c5)C4)nc(-c4ccc(C(F)(F)F)cc4F)c3s2)C1` [Compound I-165, 5-[(2R)-2-(1-cyclopropylpyrazol-4-yl)tetrahydropyran-4-yl]-7-[2-fluoro-4-(trifluoromethyl)phenyl]-2-[(3S)-3-methoxypyrrolidin-1-yl]thiazolo[4,5-d]pyrimidine]: 50 to 500 nM. On to `CN(C)c1nc2nc([C@@H]3CCO[C@@H](c4cnn(C5CC5)c4)C3)nc(C3CCCCC3)c2s1` (single isomer, unassigned) [Compound I-205], for which the EC50 fell in the range of 500 to 3000 nM. For `CN(C)c1nc2nc([C@H]3CCO[C@@H](c4cnn(C5CC5)c4)C3)nc(-c3ccc(F)cc3F)c2n1C` [Compound I-303, 2-((2R,4S)-2-(1-cyclopropyl-1H-pyrazol-4-yl)tetrahydro-2H-pyran-4-yl)-6-(2,4-difluorophenyl)-N,N,7-trimethyl-7H-purin-8-amine], the EC50 lay in the range of 50 to 500 nM.

What is called EC50 is the midpoint of the concentration-response curve. A lower EC50 goes with a more potent agent.
